The subject of one data set is AP-1. Description: AP-1 luciferase reporter assay in HEK293 cells. Format: cell-based. The protocol: (§1) All expression plasmids were transiently transfected into HEK293 cells in a 96-well plate (0.1 μg/well) by using Effectene transfection reagent (Qiagen, Valencia, Calif.) according to the manufacturer's manual. HEK293 cells were maintained in Dulbecco's modified Eagle medium (Sigma, St. Louis, Mo.) supplemented with 10% fetal bovine serum (Atlanta Biologicals, Lawrenceville, Ga.) and incubated at 37° C. in a 5% CO2 incubator. After 24 hrs incubation, the medium was changed to DMEM with 0.2% FBS, and the transfectants were exposed to various concentrations of compound I and TPA (10 ng/ml). Cells were lysed with passive lysis buffer and the luciferase assay was performed using the Firefly-Luciferase reporter assay system (Promega, Madison, Wis.) and MLX Luminometer (Dynex Technology, Chantilly, Va.).
Three different luciferase reporter genes, AP-1 reporter containing four times TRE consensus originated from GCN4 and SRE reporter purchased from Stratagene (La Jolla, Calif.) respectively are as described previously (Suzukawa et al., Environ. Health Perspect., 2002, 110, 865-70). NFκB reporter is driven by five times NFκB responsive element inserted into Cis-reporter backbone (Stratagene, La Jolla, Calif.). Others include mouse COX-2 promoter region from −203 to +70 relative to the transcription site inserted into pTIS10L vector (Kim and Fischer, J. Biol. Chem., 1998, 273, 27686-94), human uPAR promoter region from −141 to +47 relative to transcription start site in pGL3 vector (Wang et al., Eur. J. Biochem., 2000, 267, 3248-54), and human VEGF promoter sequence from −2274 to +379 inserted into the pGL2 vector (Ding et al., J. Biol. Chem., 2006, 281, 9093-100). […]

In another data set the test system is HEK293T cells. Description: XTT assay in HEK293T cells. In kind it is cell-based. Here is the method:
To evaluate whether the compound I biological activity can imitate TAM67 specificity, three different transcriptional promoter reporters were used, AP-1, NFκB, and SRE (Serum response element) in luciferase reporter assays (FIG. 1A: The transfected cells were pre-treated with varied concentrations of compound I or DMSO for 1 hour before 18 hours stimulation by TPA (10 ng/ml) or DMSO as vehicle. An asterisk (*) indicates a separate experiment with NFκB dependent luciferase only. Assays were performed with two independent experiments each in quadruplicate.). All three activities were induced by TPA but only induction of AP-I and NFκB were inhibited by TAM67. The SRE reporter was used as a specificity control and indicator of cell proliferation. TPA-induced SRE activity was not repressed by TAM67 when coexpressed with the SRE-Luc reporter in HEK293 cells. The same concentration (10 ng/ml, 16.2 nM) and incubation time (18 hrs) were used for TPA induction as previously used for the high throughput screen (HTS) (Ruocco et al., J. Biomol. Screen., 2007, 12, 133-9) along with 1 h pretreatment of compound I. The screening results had tested concentrations as high as 40 μM compound I with cell numbers showing 95.5+/−6.2% of DMSO control (ave+/− sd, n=3) by the XTT assay in HEK293T cells.
Background: Formazan colour is commonly taken as a measure of viable cells.

A further data set has as its system IKKγ. Description: Immunoblot of phosphorylated IKKγ in HEK293 cells. Format: cell-based. Particulars: compound I pretreatment. Here is the method: To measure endogenous level of several proteins in response to TPA induction and compound I, HEK293 cells were lysed with RIPA buffer (10 mM Tris-HCl pH 7.5, 1 mM EDTA, 0.1% sodium dodecyl sulfate, 0.1% deoxycholate, and protease inhibitor). Whole cell extracts were subjected to immunoblot analysis with the following antibodies: p65 (F-6), p50 (E-10), p52 (C-5), RelB (C-19), IκBα (C-21), PCNA (F-2) were obtained from Santa Cruz Biotechnology (Santa Cruz, Calif.). IKKα, IKKβ, IKKγ, phospho-IκBα, phospho-IKKα/β, phospho-IKKγ, pohospho-Stat3 (Tyr 705 and Ser 727), phospho-p65 (Ser536 and Ser276), phospho-p44/42, phospho-JNKs were purchased from Cell Signaling (Danvers, Mass.), and α-tubulin from Sigma (St. Louis, Mo.). Nuclear and cytoplasmic extracts were prepared with HEK293 cells by NE-PER Nuclear and Cytoplasmic Extraction Reagents (Pierce Biotechnology, Rockford, Ill.) according to the manufacturer's protocol.
To characterize the activity of compound I in targeting events upstream of NFκB, endogenous levels of kinases involved in NFκB activation were examined by immunoblot analysis. The well-established upstream regulators of NFκB activation are IKKα, IKKβ, and IκBα. […] Moreover, the phosphorylation of IκBα was inhibited even at 1.1 μM showing dose-dependent decrease by compound I pretreatment. […]
Background: A western blot detects proteins with antibodies after separation by electrophoresis.

Another data set relates to uPAR promoter. Description: uPAR promoter luciferase reporter assay in HEK293 cells. Format: cell-based, human. Particulars: TPA 10 ng/ml 18 hours. The protocol:
as §1
Three different luciferase reporter genes, AP-1 reporter containing four times TRE consensus originated from GCN4 and SRE reporter purchased from Stratagene (La Jolla, Calif.) respectively are as described previously (Suzukawa et al., Environ. Health Perspect., 2002, 110, 865-70). […]
Inhibition of NFκB transactivation would be expected to result in suppressed expression of genes whose transcription depends on NFκB. Quantitative RT-PCR was used to measure endogenous levels of IL-6 mRNA, transcribed from a gene whose transcription depends on NFκB but not AP-1. […]
For orientation: In a reporter assay the amount or activity of a reporter protein is the signal.

Where a name gives a salt, the structure may show the parent alone.

As usually defined, the IC50 is the midpoint of a concentration-inhibition curve. As for `Cc1cc(N)ccc1N=Nc1ccc(S(=O)(=O)CCOS(=O)(=O)O)cc1` [compound I, 2-(4-((4-amino-2-methylphenyl)diazenyl)phenylsulfonyl)ethyl hydrogen sulfate], in the data set on AP-1 (HEK293, 1 h pretreatment, TPA 10 ng/ml 18 hrs, read-out: IC50 for inhibition of TPA induced AP-1), the IC50 came to 17 µM. In addition, the “AP-1 luciferase activity, % of the activity with TPA alone” value with AP-1 (compound at 17.0 μM, HEK293, TPA 10 ng/ml 18 hrs) was 50%. For the same compound, the “Cell numbers, % of DMSO control (ave+/− sd, n=3)” value in the data set on HEK293T cells (40 μM, XTT assay, HEK293T) is 95.5+/−6.2%. Also, in the data set on HEK293T cells (HEK293 cells), the “Cytotoxic or cytostatic activity” value is recorded as “neither cytotoxic nor cytostatic activity”. Also, the “Phosphorylation of IKKγ” value with IKKγ is reported as “did not change”. For the same compound, the “uPAR luciferase activity” value in the data set with uPAR promoter is listed as “dose-dependent inhibition”.

Values taken from patent US8729053B2, “Nuclear factor kappa B pathway inhibitor composition and use of same” (The United States of America, as represented by the …, priority 2008, dated 2014).
